According to ChEMBL document CHEMBL1268945, “Sequential cytotoxicity: a theory examined using a series of 3,5-bis(benzylidene)-1-diethylphosphono-4-oxopiperidines and related phosphonic acids” (Bioorg Med Chem Lett, 2010):
Calls of active or inactive are those of the source. No cut-off for these calls is given here.

Legend:
[1] = tested on: HSC-4; assay: Cytotoxicity against human HSC4 cells; assay type: functional
[2] = tested on: HL-60; assay: Selectivity index, ratio of CC50 for normal cells to CC50 for human HL60 cells; assay type: functional
[3] = tested on: HSC-3; assay: Selectivity index, ratio of CC50 for normal cells to CC50 for human HSC3 cells; assay type: functional
[4] = Cytotoxicity against human HGF cells; assay type: cell-based
[5] = Cytotoxicity against human HPLF cells; assay type: cell-based
[6] = tested on: HSC-3; assay: Cytotoxicity against human HSC3 cells; assay type: functional
[7] = tested on: HL-60; assay: Cytotoxicity against human HL60 cells; assay type: functional
[8] = tested on: HSC-2; assay: Cytotoxicity against human HSC2 cells; assay type: functional
[9] = tested on: HSC-4; assay: Selectivity index, ratio of CC50 for normal cells to CC50 for human HSC4 cells; assay type: functional
[10] = tested on: HSC-2; assay: Selectivity index, ratio of CC50 for normal cells to CC50 for human HSC2 cells; assay type: functional
[11] = Cytotoxicity against human HPC cells; assay type: cell-based
[12] = tested on: HL-60; assay: Induction of apoptosis in human HL60 cells assessed as activation of caspase 3 after 6 hrs; assay type: functional, cell-based
[13] = tested on: HSC-2; assay: Induction of internucleosomal DNA fragmentation in human HSC2 cells after 6 hrs; assay type: functional, cell-based
[14] = tested on: HSC-4; assay: Induction of internucleosomal DNA fragmentation in human HSC4 cells after 6 hrs; assay type: functional, cell-based
[15] = tested on: HSC-2; assay: Induction of apoptosis in human HSC2 cells assessed as activation of caspase 3 after 6 hrs; assay type: functional, cell-based
[16] = tested on: HL-60; assay: Induction of internucleosomal DNA fragmentation in human HL60 cells after 6 hrs; assay type: functional, cell-based

## Cc1ccc(/C=C2\CN(P(=O)(O)O)C/C(=C\c3ccc(C)cc3)C2=O)cc1
[1]
  CC50: 0.96 µM
[2]
  Selectivity Index: 4.6
[3]
  Selectivity Index: 5.4
[4]
  CC50: 5.9 µM
[5]
  CC50: 6.1 µM
[6]
  CC50: 0.95 µM
[7]
  CC50: 1.1 µM
[8]
  CC50: 0.76 µM
[9]
  Selectivity Index: 5.3
[10]
  Selectivity Index: 6.7
[11]
  CC50: 3.3 µM

## CCOP(=O)(OCC)N1C/C(=C\c2ccc(OC)c(OC)c2)C(=O)/C(=C/c2ccc(OC)c(OC)c2)C1
[1]
  CC50: 0.5 µM
[2]
  Selectivity Index: 8.4
[3]
  Selectivity Index: 4.5
[4]
  CC50: 7.4 µM
[5]
  CC50: 5.3 µM
[6]
  CC50: 1.4 µM
[7]
  CC50: 0.75 µM
[8]
  CC50: 1.7 µM
[9]
  Selectivity Index: 13
[10]
  Selectivity Index: 3.7
[11]
  CC50: 6.2 µM

## CCOP(=O)(OCC)N1C/C(=C\c2ccc(Cl)cc2)C(=O)/C(=C/c2ccc(Cl)cc2)C1
[1]
  CC50: 0.64 µM
[2]
  Selectivity Index: 6.7
[3]
  Selectivity Index: 2
[4]
  CC50: 4.3 µM
[5]
  CC50: 4.8 µM
[6]
  CC50: 2 µM
[7]
  CC50: 0.6 µM
[8]
  CC50: 1.5 µM
[9]
  Selectivity Index: 6.3
[10]
  Selectivity Index: 2.7
[11]
  CC50: 2.8 µM

## COc1ccc(/C=C2\CN(P(=O)(O)O)C/C(=C\c3ccc(OC)cc3)C2=O)cc1
[1]
  CC50: 3.9 µM
[2]
  Selectivity Index: 12
[3]
  Selectivity Index: 31
[4]
  CC50: 107 µM
[5]
  CC50: 44 µM
[6]
  CC50: 2.2 µM
[7]
  CC50: 5.6 µM
[8]
  CC50: 1.7 µM
[9]
  Selectivity Index: 17
[10]
  Selectivity Index: 40
[11]
  CC50: 54 µM

## O=C1/C(=C/c2ccc(Cl)cc2)CN(P(=O)(O)O)C/C1=C\c1ccc(Cl)cc1
[1]
  CC50: 0.72 µM
[2]
  Selectivity Index: 9.8
[3]
  Selectivity Index: 11
[4]
  CC50: 5.9 µM
[5]
  CC50: 5.1 µM
[6]
  CC50: 0.41 µM
[7]
  CC50: 0.46 µM
[8]
  CC50: 0.42 µM
[9]
  Selectivity Index: 6.3
[10]
  Selectivity Index: 11
[11]
  CC50: 2.6 µM

## CCOP(=O)(OCC)N1C/C(=C\c2cccc([N+](=O)[O-])c2)C(=O)/C(=C/c2cccc([N+](=O)[O-])c2)C1
[1]
  CC50: 0.26 µM
[2]
  Selectivity Index: 54
[3]
  Selectivity Index: 3.4
[4]
  CC50: 2.2 µM
[5]
  CC50: 3.9 µM
[6]
  CC50: 0.74 µM
[7]
  CC50: 0.05 µM
[8]
  CC50: 0.76 µM
[9]
  Selectivity Index: 9.6
[10]
  Selectivity Index: 3.3
[11]
  CC50: 1.5 µM

## CCOP(=O)(OCC)N1C/C(=C\c2ccc(OC)cc2)C(=O)/C(=C/c2ccc(OC)cc2)C1
[1]
  CC50: 1.3 µM
[2]
  Selectivity Index: 25
[12]
  Activity: Dose-dependent effect
[3]
  Selectivity Index: 71
[4]
  CC50: 53 µM
[5]
  CC50: 46 µM
[6]
  CC50: 0.66 µM
[7]
  CC50: 1.9 µM
[8]
  CC50: 0.92 µM
[13]
  Activity: inactive
[14]
  Activity: inactive
[9]
  Selectivity Index: 36
[10]
  Selectivity Index: 51
[11]
  CC50: 41 µM
[15]
  Activity: inactive
[16]
  Activity: Active

## CCOP(=O)(OCC)N1C/C(=C\c2ccccc2)C(=O)/C(=C/c2ccccc2)C1
[1]
  CC50: 1.1 µM
[2]
  Selectivity Index: 15
[3]
  Selectivity Index: 3.7
[4]
  CC50: 11 µM
[5]
  CC50: 10 µM
[6]
  CC50: 2.5 µM
[7]
  CC50: 0.61 µM
[8]
  CC50: 2.4 µM
[9]
  Selectivity Index: 8.4
[10]
  Selectivity Index: 3.8
[11]
  CC50: 6.5 µM

## CCOP(=O)(OCC)N1C/C(=C\c2ccccc2[N+](=O)[O-])C(=O)/C(=C/c2ccccc2[N+](=O)[O-])C1
[1]
  CC50: 1.8 µM
[2]
  Selectivity Index: 37
[3]
  Selectivity Index: 12
[4]
  CC50: 18 µM
[5]
  CC50: 15 µM
[6]
  CC50: 1.2 µM
[7]
  CC50: 0.38 µM
[8]
  CC50: 1.6 µM
[9]
  Selectivity Index: 7.8
[10]
  Selectivity Index: 8.8
[11]
  CC50: 8.3 µM

## O=C1/C(=C/c2ccc([N+](=O)[O-])cc2)CN(P(=O)(O)O)C/C1=C\c1ccc([N+](=O)[O-])cc1
[1]
  CC50: 0.13 µM
[2]
  Selectivity Index: 21
[3]
  Selectivity Index: 13
[4]
  CC50: 4.1 µM
[5]
  CC50: 3.4 µM
[6]
  CC50: 0.23 µM
[7]
  CC50: 0.14 µM
[8]
  CC50: 0.18 µM
[9]
  Selectivity Index: 23
[10]
  Selectivity Index: 17
[11]
  CC50: 1.6 µM

## COc1ccc(/C=C2\CN(P(=O)(O)O)C/C(=C\c3ccc(OC)c(OC)c3)C2=O)cc1OC
[1]
  CC50: 0.42 µM
[2]
  Selectivity Index: 8.1
[3]
  Selectivity Index: 3.6
[4]
  CC50: 2.6 µM
[5]
  CC50: 2.5 µM
[6]
  CC50: 0.59 µM
[7]
  CC50: 0.26 µM
[8]
  CC50: 0.4 µM
[9]
  Selectivity Index: 5
[10]
  Selectivity Index: 5.3
[11]
  CC50: 1.3 µM

## O=C1/C(=C/c2cccc([N+](=O)[O-])c2)CN(P(=O)(O)O)C/C1=C\c1cccc([N+](=O)[O-])c1
[1]
  CC50: 0.14 µM
[2]
  Selectivity Index: 30
[3]
  Selectivity Index: 14
[4]
  CC50: 2.3 µM
[5]
  CC50: 3.3 µM
[6]
  CC50: 0.18 µM
[7]
  CC50: 0.09 µM
[8]
  CC50: 0.2 µM
[9]
  Selectivity Index: 19
[10]
  Selectivity Index: 13
[11]
  CC50: 2.2 µM

## O=C1/C(=C/c2ccccc2)CN(P(=O)(O)O)C/C1=C\c1ccccc1
[1]
  CC50: 0.57 µM
[2]
  Selectivity Index: 12
[3]
  Selectivity Index: 5.8
[4]
  CC50: 6.9 µM
[5]
  CC50: 7 µM
[6]
  CC50: 0.98 µM
[7]
  CC50: 0.46 µM
[8]
  CC50: 0.77 µM
[9]
  Selectivity Index: 10
[10]
  Selectivity Index: 7.4
[11]
  CC50: 3.2 µM

## N[C@@H](Cc1ccc(N(CCCl)CCCl)cc1)C(=O)O [MELPHALAN]
[1]
  CC50: 32 µM
[2]
  Selectivity Index: 150
[3]
  Selectivity Index: 8.4
[4]
  CC50: 161 µM
[5]
  CC50: 199 µM
[6]
  CC50: 25 µM
[7]
  CC50: 1.4 µM
[8]
  CC50: 8.7 µM
[9]
  Selectivity Index: 6.6
[10]
  Selectivity Index: 24
[11]
  CC50: 269 µM

## CCOP(=O)(OCC)N1C/C(=C\c2ccc(C)cc2)C(=O)/C(=C/c2ccc(C)cc2)C1
[1]
  CC50: 4.6 µM
[2]
  Selectivity Index: 6.7
[3]
  Selectivity Index: 5.4
[4]
  CC50: 28 µM
[5]
  CC50: 21 µM
[6]
  CC50: 4.1 µM
[7]
  CC50: 3.3 µM
[8]
  CC50: 4.9 µM
[9]
  Selectivity Index: 4.8
[10]
  Selectivity Index: 4.5
[11]
  CC50: 18 µM

## O=C1/C(=C/c2ccccc2[N+](=O)[O-])CN(P(=O)(O)O)C/C1=C\c1ccccc1[N+](=O)[O-]
[1]
  CC50: 0.1 µM
[2]
  Selectivity Index: 30
[3]
  Selectivity Index: 6.9
[4]
  CC50: 1.4 µM
[5]
  CC50: 3 µM
[6]
  CC50: 0.32 µM
[7]
  CC50: 0.07 µM
[8]
  CC50: 0.17 µM
[9]
  Selectivity Index: 22
[10]
  Selectivity Index: 13
[11]
  CC50: 2.1 µM

## CCOP(=O)(OCC)N1C/C(=C\c2cc(OC)c(OC)c(OC)c2)C(=O)/C(=C/c2cc(OC)c(OC)c(OC)c2)C1
[1]
  CC50: 0.16 µM
[2]
  Selectivity Index: 6.2
[3]
  Selectivity Index: 4.2
[4]
  CC50: 2 µM
[5]
  CC50: 2.2 µM
[6]
  CC50: 0.43 µM
[7]
  CC50: 0.29 µM
[8]
  CC50: 0.33 µM
[9]
  Selectivity Index: 11
[10]
  Selectivity Index: 5.5
[11]
  CC50: 1.3 µM

## COc1cc(/C=C2\CN(P(=O)(O)O)C/C(=C\c3cc(OC)c(OC)c(OC)c3)C2=O)cc(OC)c1OC
[1]
  CC50: 0.12 µM
[2]
  Selectivity Index: 12
[3]
  Selectivity Index: 3
[4]
  CC50: 0.88 µM
[5]
  CC50: 1 µM
[6]
  CC50: 0.27 µM
[7]
  CC50: 0.06 µM
[8]
  CC50: 0.13 µM
[9]
  Selectivity Index: 6.7
[10]
  Selectivity Index: 6.2
[11]
  CC50: 0.59 µM

## CCOP(=O)(OCC)N1C/C(=C\c2ccc([N+](=O)[O-])cc2)C(=O)/C(=C/c2ccc([N+](=O)[O-])cc2)C1
[1]
  CC50: 0.72 µM
[2]
  Selectivity Index: 17
[3]
  Selectivity Index: 6.3
[4]
  CC50: 3.1 µM
[5]
  CC50: 2.2 µM
[6]
  CC50: 0.38 µM
[7]
  CC50: 0.14 µM
[8]
  CC50: 0.33 µM
[9]
  Selectivity Index: 3.3
[10]
  Selectivity Index: 7.3
[11]
  CC50: 1.9 µM
